Source: patent publication US20260226073A1 (AURIGENE ONCOLOGY LIMITED, priority 2023, published 2026)

What was measured:
[1] = system: NFAT signaling pathway in Jurkat NFAT reporter cells; experiment: Jurkat NFAT reporter assay; assay type: cell-based; conditions: Homo sapiens, 30 min with compound, then soluble anti-human CD3/CD28 antibody for 6 hours, luciferase readout, read-out: EC50 (Group)
Protocol: A human T lymphocyte Jurkat reporter cell line was further used to assess activation of the nuclear factor of activated T-cells (NFAT) signaling pathway by Cbl-b inhibitors. The reporter cell line is a genetically engineered Jurkat T cell line that expresses a luciferase reporter driven by an NFAT-response element (NFAT-RE). The Cbl-b inhibitor was incubated with 1×10^5 Jurkat NFAT reporter cells per well for 30 minutes. Subsequently, cells were stimulated with soluble anti-human CD3/CD28 antibody for 6 hours resulting in NFAT-RE-mediated luminescence. The bioluminescent signal is detected and quantified using Bio-Glo™ Luciferase Assay System. Readouts were reported as fold change over baseline. Here, baseline was the measurement obtained from Jurkat NFAT reporter cells stimulated with anti-CD3 antibody and anti-CD28 antibody, where the cells were not incubated with a Cbl-b inhibitor.

[2] = molecular target: T1, human recombinant CBL-b (human Biotin CBL-b recombinant protein a.a. 39-426) (Homo sapiens, UniProt Q13191); experiment: Biochemical assay for CBL-b inhibition (ligand displacement TR-FRET); assay type: binding; conditions: 50 nM CBL-b, 0.3 μM Bodipy FL-Probe, read-out: IC50 (CBL-b inhibition, group)
T1 construct: human Biotin CBL-b recombinant protein a.a; 39-426; Biotin (biotinylated); made in house
How it was run: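 Biotinylated CBL-b (a.a. 39-426, 50 nM final) pre-incubated with compound 60 min at RT in HEPES/NaCl/Triton/BSA/TCEP buffer, then Bodipy FL probe (0.3 μM final) 60 min, then terbium-streptavidin 60 min. TR-FRET read at 665/615 nm; IC50 and % max inhibition from sigmoidal fits.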

T1 sequence (Q13191 39-426): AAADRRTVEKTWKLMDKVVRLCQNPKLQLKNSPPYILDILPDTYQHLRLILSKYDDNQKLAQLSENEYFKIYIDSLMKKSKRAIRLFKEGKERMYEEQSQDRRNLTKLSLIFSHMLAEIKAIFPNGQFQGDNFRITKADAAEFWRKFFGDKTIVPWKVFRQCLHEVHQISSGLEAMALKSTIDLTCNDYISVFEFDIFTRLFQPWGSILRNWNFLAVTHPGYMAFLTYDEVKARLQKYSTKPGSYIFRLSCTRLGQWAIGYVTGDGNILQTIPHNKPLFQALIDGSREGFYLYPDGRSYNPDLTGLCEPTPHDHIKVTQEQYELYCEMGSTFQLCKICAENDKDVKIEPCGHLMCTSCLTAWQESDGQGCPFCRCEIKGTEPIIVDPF

| EC50 [1] | IC50 [2] | SMILES |
| --- | --- | --- |
| < 0.3 µM | < 0.08 µM | C[C@@H]1C[C@H](C)CN(Cc2cc(N3Cc4ccc([C@@H](C)Cc5nncn5C)cc4C3=O)nc(C(F)(F)F)c2)C1 (single isomer, unassigned) [Compound 86] |
| 0.3 to 1 µM | 0.08 to 0.3 µM | C[C@@H]1C[C@H](C)CN(Cc2cc(N3Cc4ccc([C@H](C)Cc5nncn5C)cc4C3=O)nc(C(F)(F)F)c2)C1 (single isomer, unassigned) [Compound 87] |
| < 0.3 µM | < 0.08 µM | C[C@H]1CCCN(Cc2cc(Cl)nc(N3Cc4ccc([C@H](C)Cc5nncn5C)cc4C3=O)c2)C1 (single isomer, unassigned) [Compound 90] |
| < 0.3 µM | < 0.08 µM | C[C@H]1CCCN(Cc2cc(Cl)nc(N3Cc4ccc([C@@H](C)Cc5nncn5C)cc4C3=O)c2)C1 (single isomer, unassigned) [Compound 91] |
| < 0.3 µM | < 0.08 µM | CC(NC1CCCC1)c1cc(Cl)nc(N2Cc3ccc(-c4ccc(Cl)cc4-c4nncn4C)cc3C2=O)c1 (single isomer, unassigned) [Compound 104, 6-(4-Chloro-2-(4-methyl-4H-1,2,4-triazol-3-yl)phenyl)-2-(6-chloro-4-(1-(cyclo-pentylamino)ethyl)pyridin-2-yl)isoindolin-1-one] |
| < 0.3 µM | < 0.08 µM | C[C@H](NC1CCCC1)c1cc(Cl)nc(N2Cc3ccc(-c4ccc(Cl)cc4-c4nncn4C)cc3C2=O)c1 (single isomer, unassigned) [Compound 105, 6-(4-Chloro-2-(4-methyl-4H-1,2,4-triazol-3-yl)phenyl)-2-(6-chloro-4-(1-(cyclo-pentylamino)ethyl)pyridin-2-yl)isoindolin-1-one] |
| < 0.3 µM | < 0.08 µM | C[C@@H](NCc1cc(Cl)nc(N2Cc3ccc(-c4ccc(Cl)cc4-c4nncn4C)cc3C2=O)c1)C1CC1 (single isomer, unassigned) [Compound 108, 6-(4-Chloro-2-(4-methyl-4H-1,2,4-triazol-3-yl)phenyl)-2-(6-chloro-4-(((1-cyclo-propylethyl)amino)methyl)pyridin-2-yl)isoindolin-1-one] |
| < 0.3 µM | < 0.08 µM | C[C@H](NCc1cc(Cl)nc(N2Cc3ccc(-c4ccc(Cl)cc4-c4nncn4C)cc3C2=O)c1)C1CC1 (single isomer, unassigned) [Compound 109, 6-(4-Chloro-2-(4-methyl-4H-1,2,4-triazol-3-yl)phenyl)-2-(6-chloro-4-(((1-cyclo-propylethyl)amino)methyl)pyridin-2-yl)isoindolin-1-one] |
| < 0.3 µM | < 0.08 µM | C[C@@H](NCC1CC1)c1cc(Cl)nc(N2Cc3ccc(-c4ccc(Cl)cc4-c4nncn4C)cc3C2=O)c1 (single isomer, unassigned) [Compound 110, 6-(4-Chloro-2-(4-methyl-4H-1,2,4-triazol-3-yl)phenyl)-2-(6-chloro-4-(1-((cyclo-propylmethyl)amino)ethyl)pyridin-2-yl)isoindolin-1-one] |
| < 0.3 µM | < 0.08 µM | C[C@H](NCC1CC1)c1cc(Cl)nc(N2Cc3ccc(-c4ccc(Cl)cc4-c4nncn4C)cc3C2=O)c1 (single isomer, unassigned) [Compound 111, 6-(4-Chloro-2-(4-methyl-4H-1,2,4-triazol-3-yl)phenyl)-2-(6-chloro-4-(1-((cyclo-propylmethyl)amino)ethyl)pyridin-2-yl)isoindolin-1-one] |
| 0.3 to 1 µM | < 0.08 µM | Cn1cnnc1-c1cc(Cl)ccc1-c1ccc2c(c1)C(=O)N(c1cc(CNC[C@@H]3CCCO3)cc(Cl)n1)C2 (single isomer, unassigned) [Compound 123, 6-(4-Chloro-2-(4-methyl-4H-1,2,4-triazol-3-yl)phenyl)-2-(6-chloro-4-((((tetra-hydrofuran-2-yl)methyl)amino)methyl)pyridin-2-yl)isoindolin-1-one] |
| < 0.3 µM | < 0.08 µM | Cn1cnnc1-c1cc(Cl)ccc1-c1ccc2c(c1)C(=O)N(c1cc(CNC[C@H]3CCCO3)cc(Cl)n1)C2 (single isomer, unassigned) [Compound 124, 6-(4-Chloro-2-(4-methyl-4H-1,2,4-triazol-3-yl)phenyl)-2-(6-chloro-4-((((tetra-hydrofuran-2-yl)methyl)amino)methyl)pyridin-2-yl)isoindolin-1-one] |
| < 0.3 µM | < 0.08 µM | Cc1cc([C@H](C)NC2CCCC2)cc(N2Cc3ccc(-c4ccc(Cl)cc4-c4nncn4C)cc3C2=O)n1 (single isomer, unassigned) [Compound 125, 6-(4-Chloro-2-(4-methyl-4H-1,2,4-triazol-3-yl)phenyl)-2-(4-(1-(cyclopentyl-amino)ethyl)-6-methylpyridin-2-yl)isoindolin-1-one] |
| < 0.3 µM | < 0.08 µM | Cc1cc([C@@H](C)NC2CCCC2)cc(N2Cc3ccc(-c4ccc(Cl)cc4-c4nncn4C)cc3C2=O)n1 (single isomer, unassigned) [Compound 126, 6-(4-Chloro-2-(4-methyl-4H-1,2,4-triazol-3-yl)phenyl)-2-(4-(1-(cyclopentyl-amino)ethyl)-6-methylpyridin-2-yl)isoindolin-1-one] |
| 0.3 to 1 µM | < 0.08 µM | C[C@@H](Cc1nncn1C)c1ccc2c(c1)C(=O)N(c1cc(CNCC3CC3)cc(Cl)n1)C2 (single isomer, unassigned) [Compound 160] |
| 0.3 to 1 µM | < 0.08 µM | C[C@H](Cc1nncn1C)c1ccc2c(c1)C(=O)N(c1cc(CNCC3CC3)cc(Cl)n1)C2 (single isomer, unassigned) [Compound 161] |
| 0.3 to 1 µM | < 0.08 µM | C[C@@H](Cc1nncn1C)c1ccc2c(c1)C(=O)N(c1cc(CNCCC(F)(F)F)cc(Cl)n1)C2 (single isomer, unassigned) [Compound 163] |
| 1 to 10 µM | < 0.08 µM | C[C@H](Cc1nncn1C)c1ccc2c(c1)C(=O)N(c1cc(CNCCC(F)(F)F)cc(Cl)n1)C2 (single isomer, unassigned) [Compound 164] |
| < 0.3 µM | < 0.08 µM | C[C@@H](NCC1CC1)c1cc(Cl)nc(N2Cc3ccc(C4(Cc5nncn5C)COC4)cc3C2=O)c1 (single isomer, unassigned) [Compound 166] |
| < 0.3 µM | < 0.08 µM | C[C@H](NCC1CC1)c1cc(Cl)nc(N2Cc3ccc(C4(Cc5nncn5C)COC4)cc3C2=O)c1 (single isomer, unassigned) [Compound 167] |
| < 0.3 µM | < 0.08 µM | C[C@H](Cc1nncn1C)c1ccc2c(c1)C(=O)N(c1cc(CNCC3CCC3)cc(Cl)n1)C2 (single isomer, unassigned) [Compound 170] |
| < 0.3 µM | < 0.08 µM | C[C@@H](Cc1nncn1C)c1ccc2c(c1)C(=O)N(c1cc(CNCC3CCC3)cc(Cl)n1)C2 (single isomer, unassigned) [Compound 171] |
| < 0.3 µM | < 0.08 µM | C[C@H]1CCCN(Cc2cc(Cl)nc(N3Cc4ccc([C@]5(Cc6nncn6C)C[C@@H](C#N)C5)cc4C3=O)c2)C1 (single isomer, unassigned) [Compound 179] |
| 0.3 to 1 µM | < 0.08 µM | C[C@H]1CCCN(Cc2cc(Cl)nc(N3Cc4ccc([C@H](Cc5nncn5C)C(F)(F)F)cc4C3=O)c2)C1 (single isomer, unassigned) [Compound 181] |
| 1 to 10 µM | < 0.08 µM | Cn1cnnc1CC1(c2ccc3c(c2)C(=O)N(c2cc(CNC[C@H]4CCCO4)cc(Cl)n2)C3)COC1 (single isomer, unassigned) [Compound 195] |
| < 0.3 µM | < 0.08 µM | Cn1cnnc1CC1(c2ccc3c(c2)C(=O)N(c2cc(CNC[C@@H]4CCCO4)cc(Cl)n2)C3)COC1 (single isomer, unassigned) [Compound 196] |
| < 0.3 µM | < 0.08 µM | CC(NCC1CC1(F)F)c1cc(Cl)nc(N2Cc3ccc(C4(Cc5nncn5C)COC4)cc3C2=O)c1 (single isomer, unassigned) [Compound 206, 2-(6-Chloro-4-(1-(((2,2-difluorocyclopropyl)methyl)amino)ethyl)pyridin-2-yl)-6-(3-((4-methyl-4H-1,2,4-triazol-3-yl)methyl)oxetan-3-yl)isoindolin-1-one] |
| < 0.3 µM | < 0.08 µM | CC(NCC1CCC1)c1cc(Cl)nc(N2Cc3ccc(C4(Cc5nncn5C)COC4)cc3C2=O)c1 (single isomer, unassigned) [Compound 213, 2-(6-Chloro-4-(1-((cyclobutylmethyl)amino)ethyl)pyridin-2-yl)-6-(3-((4-methyl-4H-1,2,4-triazol-3-yl)methyl)oxetan-3-yl)isoindolin-1-one] |
| 0.3 to 1 µM | < 0.08 µM | C[C@H](NCc1cscn1)c1cc(Cl)nc(N2Cc3ccc(C4(Cc5nncn5C)COC4)cc3C2=O)c1 (single isomer, unassigned) [Compound 218] |
| 0.3 to 1 µM |  | CC1CCC(C)N(Cc2cc(N3Cc4ccc(C5(Cc6nncn6C)COC5)cc4C3=O)nc(C(F)(F)F)c2)C1 (centres unmarked) [Compound 93, 2-(4-((2,5-Dimethylpiperidin-1-yl)methyl)-6-(trifluoromethyl)pyridin-2-yl)-6-(3-((4-methyl-4H-1,2,4-triazol-3-yl)methyl)oxetan-3-yl)isoindolin-1-one] |
